Results published in patent US20050209278A1, “Piperidinyl- and piperazinyl-sulfonylmethyl hydroxamic acids and their use as protease inhibitors” (priority 2002, published 2005).

Tests used:
MMP-1 = target: T1, MMP-1 (Homo sapiens, UniProt P03956); assay: In vitro MMP inhibition, Ki determination (fluorogenic substrate II); type: biochemical; conditions: value not in parenthesis; read-out: MMP-1 Ki
T1 construct: made in house; host or cells: MMP-1-transfected HT-1080 cells (spent media)
T1 sequence (P03956 100-469): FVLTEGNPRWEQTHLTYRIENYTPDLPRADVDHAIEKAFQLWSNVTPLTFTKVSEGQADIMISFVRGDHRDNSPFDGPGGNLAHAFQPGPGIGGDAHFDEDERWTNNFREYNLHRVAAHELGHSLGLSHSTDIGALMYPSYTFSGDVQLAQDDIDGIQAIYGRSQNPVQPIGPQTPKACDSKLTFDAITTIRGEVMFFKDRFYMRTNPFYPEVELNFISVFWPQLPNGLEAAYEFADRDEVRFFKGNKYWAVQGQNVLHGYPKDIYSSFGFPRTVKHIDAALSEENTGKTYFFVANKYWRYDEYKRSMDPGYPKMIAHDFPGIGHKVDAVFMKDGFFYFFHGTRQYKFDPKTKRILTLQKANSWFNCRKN

MMP-9 = target: T2, MMP-9 (Homo sapiens, UniProt P14780); assay: as above; type: biochemical; conditions: value not in parenthesis
T2 construct: made in house; host or cells: MMP-9-transfected HT1080 cells (spent media)
Summary of the method: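 HT1080-derived MMP-9, activated with APMA, trypsin or MMP-3, incubated 1 hr at room temperature with inhibitor and 4 μM fluorogenic substrate II (at or below Km) in pH 7.5 Tris/NaCl/CaCl2 buffer; ex 330/em 420 nm. Ki from Morrison-equation regression, without substrate correction.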

T2 sequence (P14780 107-707 limits assumed): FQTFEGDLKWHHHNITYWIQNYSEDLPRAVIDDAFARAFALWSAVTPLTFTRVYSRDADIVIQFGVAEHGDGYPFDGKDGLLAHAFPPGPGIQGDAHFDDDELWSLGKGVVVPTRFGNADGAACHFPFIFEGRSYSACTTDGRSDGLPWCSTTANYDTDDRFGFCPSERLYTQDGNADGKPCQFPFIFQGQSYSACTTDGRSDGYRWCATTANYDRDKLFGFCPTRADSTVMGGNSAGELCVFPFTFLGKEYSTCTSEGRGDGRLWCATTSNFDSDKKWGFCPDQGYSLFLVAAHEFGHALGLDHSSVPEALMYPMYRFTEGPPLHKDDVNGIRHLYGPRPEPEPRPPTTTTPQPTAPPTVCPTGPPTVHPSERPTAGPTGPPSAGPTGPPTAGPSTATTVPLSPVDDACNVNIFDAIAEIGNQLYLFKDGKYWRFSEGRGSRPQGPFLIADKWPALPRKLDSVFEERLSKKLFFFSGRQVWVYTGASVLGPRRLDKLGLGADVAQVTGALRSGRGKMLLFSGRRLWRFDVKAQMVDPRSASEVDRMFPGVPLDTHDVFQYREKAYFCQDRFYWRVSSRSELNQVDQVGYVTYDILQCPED

Compound: COc1ccc(-c2ccc(N3CCN(S(=O)(=O)C4(C(=O)NO)CCOCC4)CC3)nc2)cc1 [Example 61]
- Ki (MMP-1): 493 nM
- Ki (MMP-9): 12.3 nM

Compound: O=C(NO)C1(S(=O)(=O)N2CCN(c3ccc(OC(F)(F)C(F)F)cc3)CC2)CCSCC1 [Example 62]
- Ki (MMP-1): 2310 nM
- Ki (MMP-9): 1.5 nM

Compound: CCCCOc1ccc(N2CCN(S(=O)(=O)C3(C(=O)NO)CC3)CC2)cc1 [Example 63]
- Ki (MMP-1): > 10000 nM
- Ki (MMP-9): 7.71 nM

Compound: CCCCOc1ccc(N2CCN(S(=O)(=O)C3(C(=O)NO)CCN(c4ccc(OC(F)(F)C(F)F)cc4)CC3)CC2)cc1 [Example 65]
- Ki (MMP-1): > 10000 nM
- Ki (MMP-9): 128 nM

Compound: O=C(NO)C1(S(=O)(=O)N2CCN(c3ccc4c(c3)OC(F)(F)C(F)(F)O4)CC2)CCOCC1 [Example 67]
- Ki (MMP-1): > 10000 nM
- Ki (MMP-9): 1380 nM

Compound: O=C(NO)C1(S(=O)(=O)N2CCN(c3ccc(COCC(F)(F)C(F)(F)F)cc3)CC2)CCOCC1 [Example 70]
- Ki (MMP-1): > 10000 nM
- Ki (MMP-9): 49.7 nM

Compound: CCCCOc1ccc(N2CCN(S(=O)(=O)C3(C(=O)NO)CCN(C(=O)c4ccco4)CC3)CC2)cc1 [Example 156]
- Ki (MMP-1): > 10000 nM
- Ki (MMP-9): 1.2 nM

Compound: CCCCOc1ccc(N2CCN(S(=O)(=O)C3(C(=O)NO)CCN(c4nccs4)CC3)CC2)cc1 [Example 157]
- Ki (MMP-1): > 10000 nM
- Ki (MMP-9): 4.28 nM

Compound: CCCCOc1ccc(N2CCN(S(=O)(=O)C3(C(=O)NO)CCN(c4ncccn4)CC3)CC2)cc1 [Example 159]
- Ki (MMP-1): > 10000 nM
- Ki (MMP-9): 1.93 nM

Compound: CCCCOc1ccc(N2CCN(S(=O)(=O)C3(C(=O)NO)CCN(C(=O)c4cccs4)CC3)CC2)cc1 [Example 160]
- Ki (MMP-1): > 10000 nM
- Ki (MMP-9): 1.79 nM

Compound: Cc1ccc(N2CCC(C(=O)NO)(S(=O)(=O)N3CCN(c4ccc(OCCCC(F)(F)F)cc4)CC3)CC2)cc1 [Example 161]
- Ki (MMP-1): > 10000 nM
- Ki (MMP-9): 134 nM

Compound: O=C(NO)C1(S(=O)(=O)N2CCN(c3ccc(OCCN4CCCC4)cc3)CC2)CCOCC1 [Example 162]
- Ki (MMP-1): > 10000 nM
- Ki (MMP-9): 402 nM

Compound: CCCCOc1ccc(N2CCN(S(=O)(=O)C3(C(=O)NO)CCN(CCOC)CC3)CC2)cn1 [Example 164]
- Ki (MMP-1): > 10000 nM
- Ki (MMP-9): 7.53 nM

Compound: CCCCOc1c(F)cc(N2CCN(S(=O)(=O)C3(C(=O)NO)CCN(CCOC)CC3)CC2)cc1F [Example 165]
- Ki (MMP-1): > 10000 nM
- Ki (MMP-9): 14.7 nM

Compound: COCCN1CCC(C(=O)NO)(S(=O)(=O)N2CCN(c3ccc(OCC(C)C)c(F)c3)CC2)CC1 [Example 166]
- Ki (MMP-1): > 10000 nM
- Ki (MMP-9): 2.22 nM

Compound: CCCCCc1ccc(N2CCN(S(=O)(=O)C3(C(=O)NO)CCOCC3)CC2)nc1 [Example 167]
- Ki (MMP-1): 6220 nM
- Ki (MMP-9): 0.2 nM

Compound: O=C(NO)C1(S(=O)(=O)N2CCN(c3ccccn3)CC2)CCOCC1 [Example 169]
- Ki (MMP-1): 450 nM
- Ki (MMP-9): 4.99 nM

Compound: O=C(NO)C1(S(=O)(=O)N2CCN(c3ccc(SC(F)(F)F)cc3)CC2)CCOCC1 [Example 170]
- Ki (MMP-1): 7810 nM
- Ki (MMP-9): 17.1 nM

Compound: CCCc1ccc(N2CCN(S(=O)(=O)C3(C(=O)NO)CCN(c4ccc(C)cc4)CC3)CC2)cc1 [Example 171]
- Ki (MMP-1): > 10000 nM
- Ki (MMP-9): 6.91 nM

Compound: CCCCc1ccc(N2CCN(S(=O)(=O)C3(C(=O)NO)CCN(CCOC)CC3)CC2)cc1F [Example 173]
- Ki (MMP-1): > 10000 nM
- Ki (MMP-9): 0.149 nM

Compound: COCCN1CCC(C(=O)NO)(S(=O)(=O)N2CCN(c3ccc(C(C)=O)cc3)CC2)CC1 [Example 174]
- Ki (MMP-1): 4650 nM
- Ki (MMP-9): 28.9 nM

Compound: CCCNC(=O)c1ccc(N2CCN(S(=O)(=O)C3(C(=O)NO)CCN(CCOC)CC3)CC2)cc1 [Example 175]
- Ki (MMP-1): > 10000 nM
- Ki (MMP-9): 440 nM

Compound: COCCN1CCC(C(=O)NO)(S(=O)(=O)N2CCN(c3ccccn3)CC2)CC1 [Example 176]
- Ki (MMP-1): 1460 nM
- Ki (MMP-9): 9.63 nM

Compound: CCCCC(=O)c1ccc(N2CCN(S(=O)(=O)C3(C(=O)NO)CCN(CCOC)CC3)CC2)cc1 [Example 177]
- Ki (MMP-1): 7360 nM
- Ki (MMP-9): 18.6 nM

Compound: CCCc1cnc(N2CCN(S(=O)(=O)C3(C(=O)NO)CCN(CCOC)CC3)CC2)nc1 [Example 178]
- Ki (MMP-1): > 10000 nM
- Ki (MMP-9): 2.23 nM

Compound: CCCC(C)Cc1ccc(N2CCN(S(=O)(=O)C3(C(=O)NO)CCN(CCOC)CC3)CC2)cc1 (stereo not shown) [Example 189]
- Ki (MMP-1): > 10000 nM
- Ki (MMP-9): 34.7 nM

Compound: CCC(C)Cc1ccc(N2CCN(S(=O)(=O)C3(C(=O)NO)CCN(CCOC)CC3)CC2)cc1 (stereo not shown) [Example 190]
- Ki (MMP-1): > 10000 nM
- Ki (MMP-9): 3.76 nM

Compound: COCCN1CCC(C(=O)NO)(S(=O)(=O)N2CCN(c3ccc(CCCCC(C)C)cc3)CC2)CC1 [Example 191]
- Ki (MMP-1): > 10000 nM
- Ki (MMP-9): 4.21 nM

Compound: COCCN1CCC(C(=O)NO)(S(=O)(=O)N2CCN(c3ccc(CC(C)C)cc3)CC2)CC1 [Example 192]
- Ki (MMP-1): > 10000 nM
- Ki (MMP-9): 9.11 nM

Compound: CCc1ccc(N2CCN(S(=O)(=O)C3(C(=O)NO)CCN(CCOC)CC3)CC2)cc1 [Example 193]
- Ki (MMP-1): 7180 nM
- Ki (MMP-9): 3.11 nM

Compound: COCCN1CCC(C(=O)NO)(S(=O)(=O)N2CCN(c3ccc(C)cc3)CC2)CC1 [Example 194]
- Ki (MMP-1): 7730 nM
- Ki (MMP-9): 7.19 nM

Compound: COCCN1CCC(C(=O)NO)(S(=O)(=O)N2CCN(c3ccccc3)CC2)CC1 [Example 195]
- Ki (MMP-1): 2980 nM
- Ki (MMP-9): 23.2 nM

Compound: COCCN1CCC(C(=O)NO)(S(=O)(=O)N2CCN(c3nc4ccccc4o3)CC2)CC1 [Example 196]
- Ki (MMP-1): > 10000 nM
- Ki (MMP-9): 79.6 nM

Compound: CCCCCc1ccc(N2CCN(S(=O)(=O)C3(C(=O)NO)CCOCC3)CC2)nn1 [Example 197]
- Ki (MMP-1): > 10000 nM
- Ki (MMP-9): 20.2 nM

Compound: O=C(NO)C1(S(=O)(=O)N2CCN(c3ccc(Cl)nn3)CC2)CCOCC1 [Example 198]
- Ki (MMP-1): 8650 nM
- Ki (MMP-9): 252 nM

Compound: CCCCCCc1ccc(N2CCN(S(=O)(=O)C3(C(=O)NO)CCN(CCOC)CC3)CC2)cc1 [Example 199]
- Ki (MMP-1): > 10000 nM
- Ki (MMP-9): 0.892 nM

Compound: CCCc1ccc(N2CCN(S(=O)(=O)C3(C(=O)NO)CCN(CCOC)CC3)CC2)cc1 [Example 200]
- Ki (MMP-1): > 10000 nM
- Ki (MMP-9): 0.28 nM

Compound: COCCN1CCC(C(=O)NO)(S(=O)(=O)N2CCN(c3ccc(Br)cc3)CC2)CC1 [Example 201]
- Ki (MMP-1): 2730 nM
- Ki (MMP-9): 3.48 nM

Compound: COCCN1CCC(C(=O)NO)(S(=O)(=O)N2CCN(c3ccc(OC(F)(F)F)cc3)CC2)CC1 [Example 202]
- Ki (MMP-1): 7520 nM
- Ki (MMP-9): 4.67 nM

Compound: O=C(NO)C1(S(=O)(=O)N2CCN(c3ccc(OC(F)(F)F)cc3)CC2)CCN(C2CC2)CC1 [Example 203]
- Ki (MMP-1): 7360 nM
- Ki (MMP-9): 2.5 nM

Compound: CCCCCc1ccc(N2CCN(S(=O)(=O)C3(C(=O)NO)CCN(S(N)(=O)=O)CC3)CC2)cc1 [Example 205]
- Ki (MMP-1): > 10000 nM
- Ki (MMP-9): 248 nM

Compound: CCCCCc1ccc(N2CCN(S(=O)(=O)C3(C(=O)NO)CCN(C(=O)CC)CC3)CC2)cc1 [Example 206]
- Ki (MMP-1): > 10000 nM
- Ki (MMP-9): 0.62 nM

Compound: Cc1ccc(-c2ccc(N3CCN(S(=O)(=O)C4(C(=O)NO)CCOCC4)CC3)cc2)cc1 [Example 207]
- Ki (MMP-1): 3250 nM
- Ki (MMP-9): 12.3 nM

Compound: O=C(NO)C1(S(=O)(=O)N2CCN(c3ccc(-c4ccc(F)cc4)cc3)CC2)CCOCC1 [Example 208]
- Ki (MMP-1): 1730 nM
- Ki (MMP-9): 0.7 nM

Compound: O=C(NO)C1(S(=O)(=O)N2CCN(c3cnc(CCCC(F)(F)F)cn3)CC2)CCOCC1 [Example 209]
- Ki (MMP-1): > 10000 nM
- Ki (MMP-9): 157 nM

Compound: O=C(NO)C1(S(=O)(=O)N2CCN(c3cnc(CCC(F)(F)C(F)(F)F)cn3)CC2)CCOCC1 [Example 210]
- Ki (MMP-1): > 10000 nM
- Ki (MMP-9): 141 nM

Compound: O=C(NO)C1(S(=O)(=O)N2CCN(c3ccc(OCC(F)(F)C(F)(F)F)cc3)CC2)CCOCC1 [Example 212]
- Ki (MMP-1): 9810 nM
- Ki (MMP-9): 2.91 nM
